Experimental findings from patent publication US20230167073A1 (Teijin Pharma Limited, priority 2020, published 2023) are described below.

Where only a bound is given, the exact number is not on record here.

In the test the target is T1, Human TRPC6 (Homo sapiens, UniProt Q9Y210).
T1 construct: expressed in transfected cells
T1 sequence (Q9Y210 1-931): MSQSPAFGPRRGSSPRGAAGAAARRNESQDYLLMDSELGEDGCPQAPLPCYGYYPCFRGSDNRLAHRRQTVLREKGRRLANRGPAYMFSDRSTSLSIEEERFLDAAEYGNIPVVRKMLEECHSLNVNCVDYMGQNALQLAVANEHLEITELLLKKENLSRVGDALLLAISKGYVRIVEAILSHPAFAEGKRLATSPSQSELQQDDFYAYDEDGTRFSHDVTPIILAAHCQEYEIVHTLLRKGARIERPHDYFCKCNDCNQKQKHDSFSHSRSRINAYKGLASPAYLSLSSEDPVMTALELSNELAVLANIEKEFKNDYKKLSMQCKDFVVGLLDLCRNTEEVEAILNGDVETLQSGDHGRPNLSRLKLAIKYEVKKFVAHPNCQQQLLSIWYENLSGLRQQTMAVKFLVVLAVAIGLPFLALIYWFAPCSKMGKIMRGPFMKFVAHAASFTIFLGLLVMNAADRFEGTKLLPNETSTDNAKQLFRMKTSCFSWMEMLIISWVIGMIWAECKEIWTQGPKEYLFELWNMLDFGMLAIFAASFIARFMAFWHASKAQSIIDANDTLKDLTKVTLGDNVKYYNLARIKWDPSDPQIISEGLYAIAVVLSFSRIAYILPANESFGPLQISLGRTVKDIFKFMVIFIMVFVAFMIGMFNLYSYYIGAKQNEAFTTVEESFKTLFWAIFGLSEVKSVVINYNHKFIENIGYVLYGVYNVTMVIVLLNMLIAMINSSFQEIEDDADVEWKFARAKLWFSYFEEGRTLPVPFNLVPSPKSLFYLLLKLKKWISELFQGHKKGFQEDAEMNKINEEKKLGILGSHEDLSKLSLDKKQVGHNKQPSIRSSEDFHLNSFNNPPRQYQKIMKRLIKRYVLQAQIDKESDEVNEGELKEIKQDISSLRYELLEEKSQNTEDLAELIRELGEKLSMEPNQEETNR
In words: Evaluation of TRPC6 channel inhibitory activity (1), FLIPR Calcium 5 Assay Kit, OAG stimulation (Compound Nos. 1-1293). The class given is cell-based. The following applies: Human TRPC6 stably-expressing cells, OAG 30 μM, FLIPR Calcium 5 Assay Kit; read-out: Inhibitory activity (pIC50 class) (converted). In a few lines:
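Calcium influx read by FLIPR fluorescence in cells stably expressing human TRPC6, dye-loaded 30 min. Compounds preincubated 20 min, then OAG stimulation at 30 μM final. Inhibition fitted by four-parameter logistic regression to give pIC50, reported as +/++/+++ categories.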
In the case of `Cc1cc(Oc2cc(C#N)ccc2-c2cc(CN)cn3cnnc23)cc(N2CCOCC2)n1` [compound 733, 4-[6-(aminomethyl)-[1,2,4]triazolo[4,3-a]pyridin-8-yl]-3-(2-methyl-6-morpholin-4-ylpyridin-4-yl)oxybenzonitrile], the IC50 is greater than 1000 nM.

For `N#Cc1ccc(-c2ccc(CCN)cn2)c(Cn2cnc(-c3ccc(F)cc3)c2)c1` [compound 1147, 4-[5-(2-aminoethyl)pyridin-2-yl]-3-[[4-(4-fluorophenyl)imidazol-1-yl]methyl]benzonitrile], the IC50 is less than 10 nM.

Consider `Cn1nc(-c2cccc(F)c2)cc1Oc1cc(C#N)ccc1-c1ccc([C@H](O)CN)cn1` [compound 403, 4-[5-[(1S)-2-amino-1-hydroxyethyl]pyridin-2-yl]-3-[5-(3-fluorophenyl)-2-methylpyrazol-3-yl]oxybenzonitrile], for which the IC50 was less than 10 nM.

As for `N#Cc1ccc(-c2ccc(CCN)cc2)c(Oc2cnnc(C3CCCC3)c2)c1` [Compound 137, 4-[4-(2-aminoethyl)phenyl]-3-(6-cyclopentylpyridazin-4-yl)oxybenzonitrile], the IC50 was less than 10 nM.

On to `Cc1cc(Oc2cc(C#N)ccc2-c2ccc(C(N)C#N)cn2)cc(N2CCOCC2)n1` (centres unmarked) [compound 423, 4-[5-[amino(cyano)methyl]pyridin-2-yl]-3-(2-methyl-6-morpholin-4-ylpyridin-4-yl)oxybenzonitrile], for which the IC50 is 10 to 1000 nM.

With `Cc1nc(C(C)c2cc(C#N)ccc2-c2ccc(CCN)cc2)cc(N2CCOCC2)n1` (centres unmarked) [Compound No. 1226, 4-[4-(2-Aminoethyl)phenyl]-3-[1-(2-methyl-6-morpholin-4-ylpyrimidin-4-yl)ethyl]benzonitrile], the IC50 was 10 to 1000 nM.

With `Cc1c(Oc2cc(F)ccc2-c2ncc(CCN)cn2)cnn1CC(C)C` [Compound No. 967, 2-[2-[4-fluoro-2-[5-methyl-1-(2-methylpropyl)pyrazol-4-yl]oxyphenyl]pyrimidin-5-yl]ethanamine], the IC50 is 10 to 1000 nM.

As to `Cn1nc(C2CCC2)cc1Oc1cc(C#N)ccc1-c1ccc(C(O)CNCC#N)cn1` (centres unmarked) [Compound 280, 4-[5-[2-(cyanomethylamino)-1-hydroxyethyl]pyridin-2-yl]-3-(5-cyclobutyl-2-methylpyrazol-3-yl)oxybenzonitrile], the IC50 was 10 to 1000 nM.

As for `Cc1nc(Oc2cc(C#N)ccc2-c2ncc(CN)cn2)cc(N2CC(F)(F)C2)n1` [compound 653, 4-[5-(aminomethyl)pyrimidin-2-yl]-3-[6-(3,3-difluoroazetidin-1-yl)-2-methylpyrimidin-4-yl]oxybenzonitrile], the IC50 is 10 to 1000 nM.

Consider `Cn1nc(-c2ccccn2)cc1Cc1cc(C#N)ccc1-c1ccc(CCN)cn1` [compound 1215, 4-[5-(2-aminoethyl)pyridin-2-yl]-3-[(2-methyl-5-pyridin-2-ylpyrazol-3-yl)methyl]benzonitrile], for which the IC50 was less than 10 nM.

In the case of `Cn1nc(C2CC2)cc1Oc1cc(C#N)ccc1-c1cccc(CCN)n1` [compound 481, 4-[6-(2-aminoethyl)pyridin-2-yl]-3-(5-cyclopropyl-2-methylpyrazol-3-yl)oxybenzonitrile], the IC50 is greater than 1000 nM.

As for `Cn1nc(C(=O)O)cc1Oc1cc(C#N)ccc1-c1ccc(CCN)cn1` [compound 316, 5-[2-[5-(2-aminoethyl)pyridin-2-yl]-5-cyanophenoxy]-1-methylpyrazole-3-carboxylic acid], the IC50 was greater than 1000 nM.

Turning to `N#Cc1ccc(-c2ccc(CC3(N)COC3)cn2)c(Oc2cc(N3CCCC3)ncc2C#N)c1` [compound 738, 4-[2-[5-[(3-aminooxetan-3-yl)methyl]pyridin-2-yl]-5-cyanophenoxy]-6-pyrrolidin-1-ylpyridine-3-carbonitrile], the IC50 was 10 to 1000 nM.

For `Cc1ccc(-c2cc(Oc3cc(C#N)ccc3-c3ncc(CCN)cn3)cc(C)n2)nn1` [compound 466, 4-[5-(2-aminoethyl)pyrimidin-2-yl]-3-[2-methyl-6-(6-methylpyridazin-3-yl)pyridin-4-yl]oxybenzonitrile], the IC50 was greater than 1000 nM.

For the compound `CN(CC1CC1)c1cc(Oc2cc(C#N)ccc2-c2ncc(CCN)cn2)n(C)n1` [compound 769, 4-[5-(2-aminoethyl)pyrimidin-2-yl]-3-[5-[cyclopropylmethyl(methyl)amino]-2-methylpyrazol-3-yl]oxybenzonitrile], the IC50 was less than 10 nM.

As to `COCCN(C)c1cc(Oc2cc(C#N)ccc2-c2ccc(CN)cn2)n(C)n1` [compound 799, 4-[5-(aminomethyl)pyridin-2-yl]-3-[5-[2-methoxyethyl(methyl)amino]-2-methylpyrazol-3-yl]oxybenzonitrile], the IC50 is less than 10 nM.

On to `Cc1c(Oc2cc(C#N)ccc2-c2ncc(CCN)cn2)cnn1CC(C)C` [compound 804, 4-[5-(2-aminoethyl)pyrimidin-2-yl]-3-[5-methyl-1-(2-methylpropyl)pyrazol-4-yl]oxybenzonitrile], for which the IC50 is 10 to 1000 nM.

As for `Cn1nc(N2CCCC2)cc1Oc1cc(C#N)ccc1-c1ccc(CN)cn1` [compound 622, 4-[5-(aminomethyl)pyridin-2-yl]-3-(2-methyl-5-pyrrolidin-1-ylpyrazol-3-yl)oxybenzonitrile], the IC50 is less than 10 nM.

For `Cc1cc(Oc2cc(C#N)ccc2-c2ccc(C(O)C(C)(C)N)cn2)cc(N2CCOCC2)n1` (centres unmarked) [compound 303, 4-[5-(2-amino-1-hydroxy-2-methylpropyl)pyridin-2-yl]-3-(2-methyl-6-morpholin-4-ylpyridin-4-yl)oxybenzonitrile], the IC50 was 10 to 1000 nM.

As for `Cn1nc(C2CC2)cc1Oc1cc(C#N)ccc1-n1ncc2c1CCNC2` [compound 777, 3-(5-cyclopropyl-2-methylpyrazol-3-yl)oxy-4-(4,5,6,7-tetrahydropyrazolo[4,3-c]pyridin-1-yl)benzonitrile], the IC50 is greater than 1000 nM.

Regarding `Cc1nn(-c2ccccn2)cc1Cc1cc(C#N)ccc1-c1ccc(CCN)cn1` [compound 1203, 4-[5-(2-aminoethyl)pyridin-2-yl]-3-[(3-methyl-1-pyridin-2-ylpyrazol-4-yl)methyl]benzonitrile], the IC50 was less than 10 nM.

For the compound `Cc1cc(Oc2cc(C#N)c(C)cc2-c2ncc(CCN)cn2)cc(N2CCOCC2)n1` [compound 900, 4-[5-(2-aminoethyl)pyrimidin-2-yl]-2-methyl-5-(2-methyl-6-morpholin-4-ylpyridin-4-yl)oxybenzonitrile], the IC50 was less than 10 nM.

As to `CN(CC(F)F)c1cc(Oc2cc(F)ccc2-c2ncc(CN)cn2)n(C)n1` [compound 993, 5-[2-[5-(aminomethyl)pyrimidin-2-yl]-5-fluorophenoxy]-N-(2,2-difluoroethyl)-N,1-dimethylpyrazole-3-amine], the IC50 was 10 to 1000 nM.

On to `CCc1cc(Oc2cc(C#N)ccc2-c2ccc(OCCN)cn2)n(C)n1` [compound 345, 4-[5-(2-aminoethoxy)pyridin-2-yl]-3-(5-ethyl-2-methylpyrazol-3-yl)oxybenzonitrile], for which the IC50 is 10 to 1000 nM.

For the compound `Cc1nc(Oc2cc(C#N)ccc2-c2ccc([C@H](O)CN)cn2)cc(N2CCO[C@@H](C)C2)n1` [compound 558, 4-[5-[(1S)-2-amino-1-hydroxyethyl]pyridin-2-yl]-3-[2-methyl-6-[(2S)-2-methylmorpholin-4-yl]pyrimidin-4-yl]oxybenzonitrile], the IC50 was 10 to 1000 nM.

As for `Cc1cc(Oc2cc(C#N)ccc2-n2cc(C(O)CN)cn2)cc(N2CCOCC2)n1` (centres unmarked) [Compound 241, 4-[4-(2-amino-1-hydroxyethyl)pyrazol-1-yl]-3-(2-methyl-6-morpholin-4-ylpyridin-4-yl)oxybenzonitrile], the IC50 is less than 10 nM.

Take `N#Cc1ccc(-c2ncc(CCN)cn2)c(Oc2nnc(-c3ccccn3)s2)c1` [compound 703, 4-[5-(2-aminoethyl)pyrimidin-2-yl]-3-[(5-pyridin-2-yl-1,3,4-thiadiazol-2-yl)oxy]benzonitrile]: the IC50 was 10 to 1000 nM.

With `N#Cc1ccc(-c2ncc(CN)cn2)c(Oc2ccc(N3CCCC3)nc2)c1` [compound 751, 4-[5-(aminomethyl)pyrimidin-2-yl]-3-(6-pyrrolidin-1-ylpyridin-3-yl)oxybenzonitrile], the IC50 is greater than 1000 nM.

In the case of `CC(C)n1nc(C2CC2)cc1Oc1cc(C#N)ccc1-c1ccc([C@H](O)CN)cn1` [compound 407, 4-[5-[(1S)-2-amino-1-hydroxyethyl]pyridin-2-yl]-3-(5-cyclopropyl-2-propan-2-ylpyrazol-3-yl)oxybenzonitrile], the IC50 is less than 10 nM.
